Measured values as given in PMC12169614, “Exploring Long Arm Amide-Linked Side Chains in the Design of Antifungal Azole Inhibitors of Sterol 14α-Demethylase (CYP51)” (Journal of Medicinal Chemistry, 2025).

Columns and labels:
[1] = tested on: Y2301 ScCYP51 Y140F mutant; assay: Agarose (disk) diffusion assay, strain Y2301; format: cell-based, S. cerevisiae; conditions: 10 nmol/disk, 30 °C, 48 h
From the text: (§1) Final compounds were screened as racemic mixtures using agarose diffusion assays to visualize their inhibitory activity against a panel of recombinant S. cerevisiae strains i.e., S. cerevisiae strains expressing control levels of wild-type CYP51 (ScCYP51), overexpressed wild-type ScCYP51, overexpressed azole-resistant ScCYP51 Y140F/H mutations and overexpressed C. albicans efflux pumps MDR1a or CDR1B (Figure and Table S1).
(§2) The susceptibilities of S. cerevisiae and Candida species strains to azole compounds were observed as zones of growth inhibition in agarose diffusion assays. The disk diffusion assays were carried out as described by Keniya et al. Complete supplement mixture (CSM) agarose (0.6% agarose [wt/vol]; 20 mL of synthetic defined medium (SD); pH 6.8–7) was solidified in a rectangular Petri dish which was overlaid with CSM agarose (0.6% [wt/vol]; 5 mL; pH 6.8–7) seeded with yeast cells at an optical density (OD600) of 0.008 (118,000 cells per 1 mL of overlay). Azole compounds (10 nmol/disk) were applied to sterile BBL paper disks (Becton Dickinson Co., Sparks, MD) and placed on solidified overlays. Cell growth was assessed after incubation at 30 °C for 48 h.

[2] = tested on: Y525 MFS efflux pump CaMDR1a overexpressed; assay: Agarose (disk) diffusion assay, strain Y525; format: cell-based, S. cerevisiae; conditions: 10 nmol/disk, 30 °C, 48 h
From the text: as §1, §2

[3] = tested on: Y2513 ScCYP51 Y140H mutant; assay: Agarose (disk) diffusion assay, strain Y2513; format: cell-based, S. cerevisiae; conditions: 10 nmol/disk, 30 °C, 48 h
From the text: as §1, §2

[4] = tested on: Y2301 OE ScCYP51 Y140F; assay: MIC80 determination, strain Y2301; format: cell-based, S. cerevisiae; conditions: Saccharomyces cerevisiae
Protocol: (§3) Cells were seeded at an OD600 nm of 0.005 (1.5 × 10^4 CFU), and the plates were incubated at 30 °C with shaking at 200 rpm for 48 h for S. cerevisiae strains and 24 h for C. albicans . Cell growth was assessed by measuring the OD600 nm using a Synergy 2 multimode plate reader (BioTek Instruments, VT, USA). Each MIC80 was determined using triplicate measurements for pools of 4 clones of each strain in three separate experiments.

[5] = tested on: Y2513 OE ScCYP51 Y140H; assay: MIC80 determination, strain Y2513; format: cell-based, S. cerevisiae; conditions: Saccharomyces cerevisiae
Protocol: as §3

[6] = tested on: Y525 OE CaMDR1a; assay: MIC80 determination, strain Y525; format: cell-based, S. cerevisiae
Protocol: as §3

[7] = tested on: Y1; assay: MIC80 determination, C. albicans clinical isolate Y1; format: cell-based; conditions: Candida albicans, pH 7, 24 h
Protocol: as §3

[8] = tested on: Y2300 OE ScCYP51; assay: MIC80 determination, strain Y2300; format: cell-based, S. cerevisiae; conditions: Saccharomyces cerevisiae
Protocol: as §3

[9] = tested on: Y433 OE CgCDR1; assay: MIC80 determination, strain Y433; format: cell-based, S. cerevisiae; conditions: Saccharomyces cerevisiae
Protocol: as §3

[10] = tested on: Y2411 Endog. ScCYP51; assay: MIC80 determination, strain Y2411; format: cell-based, S. cerevisiae; conditions: Saccharomyces cerevisiae
Protocol: as §3

[11] = tested on: Y570 OE CaCDR1B; assay: MIC80 determination, strain Y570; format: cell-based, S. cerevisiae
Protocol: as §3

[12] = tested on: Y611 FHB3; assay: MIC80 determination, C. albicans clinical isolate Y611 FHB3; format: cell-based; conditions: Candida albicans, 24 h, pH 7
Protocol: as §3

[13] = tested on: Y2459 OE CaCYP51 CaCpr; assay: MIC80 determination, strain Y2459; format: cell-based, S. cerevisiae
Protocol: as §3

[14] = tested on: Y71 SC5314; assay: MIC80 determination, C. albicans clinical isolate Y71 SC5314; format: cell-based; conditions: Candida albicans
Protocol: as §3

[15] = tested on: Y2374 OE CgCYP51; assay: MIC80 determination, strain Y2374; format: cell-based, S. cerevisiae; conditions: Saccharomyces cerevisiae
Protocol: as §3

[16] = tested on: Y610 FHB1; assay: MIC80 determination, C. albicans clinical isolate Y610 FHB1; format: cell-based; conditions: Candida albicans; C. albicans clinical isolate Y610 FHB1 (weakly expresses CaCDR1); pH 7, 24 h
Protocol: as §3

[17] = Saccharomyces cerevisiae, 48 h, pH 6.8

## O=C(NCc1ccc(-c2ccc(Cl)cc2)cc1)C(Cn1cncn1)c1ccc(F)cc1F (centres unmarked) [Compound 38]
[1]
  zone of growth inhibition (inhibitory activity in words): low inhibitory activity
[2]
  zone of growth inhibition (inhibitory activity in words): low inhibitory activity
[3]
  zone of growth inhibition (inhibitory activity in words): low inhibitory activity

## O=C(NCc1ccc(-c2ccc(C(F)(F)F)cc2)cc1)C(Cn1cncn1)c1ccc(F)cc1F (centres unmarked) [Compound 39]
[1]
  zone of growth inhibition (inhibitory activity in words): lacked inhibitory activity
[2]
  zone of growth inhibition (inhibitory activity in words): lacked inhibitory activity
[3]
  zone of growth inhibition (inhibitory activity in words): lacked inhibitory activity

## O=C(NCc1ccc(-c2ccccc2)cc1)C(Cn1cncn1)c1ccc(F)cc1F (centres unmarked) [Compound 37]
[1]
  zone of growth inhibition (inhibitory activity in words): low inhibitory activity
[2]
  zone of growth inhibition (inhibitory activity in words): low inhibitory activity
[3]
  zone of growth inhibition (inhibitory activity in words): low inhibitory activity

## O=C(NCC(O)(Cn1cncn1)c1ccc(F)cc1F)c1ccc(NC(=O)c2ccc(Cl)cc2)cc1 (centres unmarked) [Compound 26, 4-Chloro-N-(4-((2-(2,4-difluorophenyl)-2-hydroxy-3-(1H-1,2,4-triazol-1-yl)propyl)carbamoyl)phenyl)benzamide]
[4]; 48 h, pH 6.8
  MIC80: 0.123 ± 0.038 µM
[4]; read-out: MIC (nM) S. cerevisiae Y2301
  MIC: 123 ± 38 nM
[5]; 48 h, pH 6.8
  MIC80: 0.087 ± 0.004 µM
[5]; read-out: MIC (nM) S. cerevisiae Y2513
  MIC: 87 ± 4 nM
[6]; [17]
  MIC80: > 1 µM
[6]; read-out: MIC (nM) C. albicans model Y525
  MIC: > 1000 nM
[7]
  MIC80: 0.285 µM
[8]; 48 h, pH 6.8
  MIC80: 0.182 ± 0.03 µM
[8]; read-out: MIC (nM) S. cerevisiae Y2300
  MIC: 182 ± 30 nM
[9]
  MIC80: > 40 µM
[10]; strain Y2411 Endog. ScCYP51, SD pH 6.8, 30 °C, 48 h
  MIC80: 0.039 ± 0.014 µM
[10]; supplement csv, read-out: MIC (nM) S. cerevisiae Y2411
  MIC: 39 ± 14 nM
[2]
  zone of growth inhibition (inhibitory activity in words): less effective
[11]; Candida albicans, read-out: MIC (nM) C. albicans model Y570
  MIC: > 40000 nM
[11]; [17]
  MIC80: > 40 µM
[12]
  MIC80: 19.5 µM
[13]; [17]
  MIC80: 0.118 ± 0.003 µM
[13]; read-out: MIC (nM) C. albicans model Y2459
  MIC: 118 ± 3 nM
[14]; SC5314, supplement csv
  MIC: 208 ± 83 nM
[14]; C. albicans clinical isolate Y71 SC5314, pH 7, 24 h
  MIC80: 0.208 ± 0.083 µM
[15]
  MIC80: 0.205 µM
[15]; read-out: MIC (nM) C. glabrate model Y2374
  MIC: 205 nM
[16]
  MIC80: 0.95 µM
